According to US20080299176A1, “DRUG DELIVERY DEVICE COMPRISING CROSSLINKED POLYURETHANE-SILOXANE-CONTAINING COPOLYMERS” (priority 2007, published 2008):

Assay: Diffusion of FA through the copolymer membranes (Valia-Chien diffusion apparatus)
Format: physicochemical
Conditions: membrane of Example 5 composition, thickness 100 μm; PBS, 37° C.; FA 2 mg in donor cell; HPLC at 238 nm
Description: The diffusion was carried out using Valia-Chien diffusion apparatus. FA and membranes with a composition described in Example 5 were used. FA (2 mg) and PBS (3.2 mL) were added to each of the donor cells, and 3.2 mL PBS were added in each of the receptor cells. The cells were capped and the temperature was kept at 37° C. using a circulating water bath. At given time intervals, the diffusion media in the receptor cells were removed and replaced by fresh PBS. FA concentration in the release media was determined using a set of HP series 1100 HPLC instruments equipped with a degasser, a binary pump, an auto sampler and a DAD detector. The column used was an Altima C18 (5μ, 250 mm×4.6 mm). The mobile phase was 40% ACN in water and the flow rate was 1.0 mL/m in. The eluted FA was detected at 238 nm. The concentration of FA in the media was directly determined using HPLC. The diffusion rate of FA through the copolymer membranes with a thickness of 100 μm was estimated to be 1.4 μg/cm^2/hour.

diffusion rate of FA through the copolymer membranes: 1.4 μg/cm^2/hour
SMILES: CC1(C)O[C@@H]2C[C@H]3[C@@H]4C[C@H](F)C5=CC(=O)C=C[C@]5(C)[C@@]4(F)[C@@H](O)C[C@]3(C)[C@]2(C(=O)CO)O1 [FA, fluocinolone acetonide]
